Patent US9540355B2, “Irciniastatin analogues” (priority 2013, dated 2017)

What was measured:
BXPC-3 = settings: pancreas BXPC-3; cited from earlier work
H522-T1 = assay: Cell growth inhibition assay (CellTiter-Glo); format: cell-based, human
Procedure: (§1) Cell Culture and Cell Growth Inhibition Assay.
(§2) The chosen cell lines are all human cancer cell lines except for the 4T1 murine breast cancer line, representing a wide variety of cancer types including breast (MDA-MB-453), kidney (A498), lung (H1975), pancreatic (PANC-1) and endometrial cancer (AN3CA, HEC-1A, and RL95-2), glioblastoma (U251 and U-87MG), melanoma (A2058 and LOXIMVI) and uterine sarcoma (MES-SA). All the cancer cell lines can be obtained from the American Type Culture Collection (ATCC, Manassas, Va., USA) with the exception of U251 which can be provided by the National Cancer Institute Tumor Repository (Frederick, Md.) and is cultured in the standard tissue culture media appropriate for each cell line. All the culture media are supplemented with 10% fetal bovine serum (FBS), 100 I.U./mL penicillin and 100 μg/mL streptomycin. For the cell growth inhibition assay, the cells are seeded in 96-well tissue culture plates at 500-3000 cells/well (seeding density empirically adjusted for each cell line based on growth rate optimization). The cells are allowed to attach for a minimum of 5 h prior to compound administration. The cells are incubated for a period of 4 days after compound addition. Following the incubation period, CellTiter-Glo reagent (Promega, Madison, Wis., USA) is added to all the wells to assess cell proliferation/viability. Luminescence is measured using an Envision microplate reader (Perkin Elmer, Waltham, Mass., USA). The IC50 values were calculated as the concentration which inhibited cell growth to 50% of DMSO control treated cell populations.

HCT-116 [1] = assay: Cell growth inhibition assay (CellTiter-Glo); format: cell-based, human
Procedure: as §1, §2

A2058 = assay: Cell growth inhibition assay (CellTiter-Glo); format: cell-based, human
Procedure: as §1, §2

UACC-257 = settings: melanoma UACC-257; read-out: LC50 (the source's name); cited from earlier work
KM20L2 = settings: colon KM20L2; cited from earlier work
MOLT-4 = settings: leukemia MOLT-4; read-out: LC50 (the source's name); cited from earlier work
MDA-MB-435 = settings: breast cancer MDA-MB-435; read-out: LC50 (the source's name); cited from earlier work
HS 578T = settings: breast cancer HS 578T; cited from earlier work
K-562 = settings: leukemia K-562; read-out: LC50 (the source's name); cited from earlier work
[2] = test system: IMR-90 human fibroblast cells; assay: IMR-90 cytotoxicity assay; format: cell-based; settings: IMR-90, 72 h, quiescent non-dividing cells, 0.1% FBS, 3 days incubation, read-out: IC50 (nM) Quiescent IMP-90
Text: IMR-90 Cytotoxicity Assay.
To evaluate the effect of compounds of the invention on non-proliferating normal cells, an in vitro cytotoxicity assay developed to distinguish between true antiproliferative activity and general cellular cytotoxicity unrelated to proliferation was used. Rudolph-Owen L A, Salvato K, Cheng C, Wu J, Towle M J and Littlefield B A: A 96-well plate cell-based assay to quantify undesired cytotoxic effects against quiescent non-dividing cells. Proc Amer Assoc Cancer Res 45: 264-265, 2004. In brief, IMR-90 human fibroblast cells, obtained from ATCC, were grown for 4 days to confluency in MEM containing 10% FBS and supplemented with L-glutamine, penicillin/streptomycin. After washing, the medium was replaced with complete MEM containing 0.1% FBS and the cells were cultured for 3 additional days to achieve complete quiescence. A compound of the invention or vehicle control was then added in the continued presence of 0.1% FBS, followed by incubation for 3 days at 37° C. Cell viability was assessed by the measurement of cellular ATPlevels using CellTiter-Glo reagent (Promega).

NCI-H460 = settings: lung NCI-H460; cited from earlier work
T-47D = settings: breast cancer T-47D; read-out: LC50 (the source's name); cited from earlier work
NCI/ADR-RES = settings: breast cancer NCI/ADR-RES; read-out: LC50 (the source's name); cited from earlier work
SW-620 = settings: colon cancer SW-620; read-out: LC50 (the source's name); cited from earlier work
HCC-2998 = settings: colon cancer HCC-2998; read-out: LC50 (the source's name); cited from earlier work
MCF7 = settings: breast cancer MCF7; read-out: LC50 (the source's name); cited from earlier work
HCT-116 [3] = settings: colon cancer HCT-116; read-out: LC50 (the source's name); cited from earlier work
SF-268 = settings: CNS SF-268; cited from earlier work
SK-MEL-5 = settings: melanoma SK-MEL-5; read-out: LC50 (the source's name); cited from earlier work
MCF-7 = settings: breast MCF-7; cited from earlier work
[4] = test system: several solid tumor cell lines; settings: cited from earlier work
DU-145 = settings: prostate DU-145; cited from earlier work
HL-60(TB) = settings: leukemia HL-60(TB); read-out: LC50 (the source's name); cited from earlier work
[5] = test system: P388 murine lymphocytic leukemia cell line; settings: cited from earlier work
[6] = Homo sapiens, 96 h, 4 days incubation
[7] = ratio IC50[IMR-90]:IC50[tumor cell line]

For `C=C(C)C[C@H](OC)[C@H](O)C(=O)N[C@@H](OC)[C@@H]1C[C@@H](O)C(C)(C)[C@@H](C[C@H](O)[C@@H](C)[C@H]2Cc3c(C)c(O)cc(O)c3C(=O)O2)O1` [Irciniastatin A, (+)-Irciniastatin A], the “Growth Inhibition of Cancer Cell Lines (GI50)” value (“Growth Inhibition” for short) (BXPC-3) is given as 3.8 ng/mL, the IC50 (H522-T1; [6]) is given as 1 nM and the “Selectivity vs. IMR-90, H522-T1” value (H522-T1; [7]) is given as 27. The IC50 (HCT-116 [1]; [6]) was 4 nM, the “Selectivity vs. IMR-90, HCT-116” value (HCT-116 [1]; [7]) was 7 and the IC50 (A2058; [6]) was 0.4 nM. The “Selectivity vs. IMR-90, A2058” value (A2058; [7]) was 68, the CC50 (UACC-257) was > 25000 nM and the “Growth Inhibition” value (KM20L2) was 2.7 ng/mL. The CC50 (MOLT-4) was > 25000 nM, the CC50 (MDA-MB-435) was < 2.5 nM and the LC50 (HS 578T) was > 25000 nM. The CC50 (K-562) was > 25000 nM, the IC50 [2] was 27 nM and the “Growth Inhibition” value (NCI-H460) was <0.1 ng/mL. The CC50 (T-47D) was 13600 nM, the CC50 (NCI/ADR-RES) was 19000 nM and the CC50 (SW-620) was > 25000 nM. For the same compound, the CC50 (HCC-2998) was 360 nM, the CC50 (MCF7) was > 25000 nM and the CC50 (HCT-116 [3]) was < 2.5 nM. The “Growth Inhibition” value (SF-268) was 3.4 ng/mL, the CC50 (SK-MEL-5) was < 2.5 nM and the “Growth Inhibition” value (MCF-7) was 3.2 ng/mL. The “hollow fiber assay overall score” value ([4]; compounds considered active score 20 or higher) was 34, the “hollow fiber assay score against intraperitoneal fibers” value ([4]; intraperitoneal fibers) was 28 and the “hollow fiber assay score against subcutaneous fibers” value ([4]; subcutaneous fibers) was 6. The “Growth Inhibition” value (DU-145) was 2.4 ng/mL, the CC50 (HL-60(TB)) was > 25000 nM and the “Growth Inhibition” value [5] was 4.13 ng/mL.
